From patent publication EP0989125B1, “Pesticidal furylmethyl cyclopropanecarboxylates” (Sumitomo Chemical Company, Limited, priority 1998, dated 2000) come the findings set out here.

Bounds are passed on as bounds.

Series [1] relates to houseflies (Musca domestica). Kind of series: Biological test 9: topical application of acetone solution to houseflies. The series is classed as in vivo. The note with it: 5 µg / one housefly, after 24 hours. Here is the method: After 24 hours, the percent moribund was examined (two replicate).
Series [2] concerns common mosquitoes (Culex pipiens pallens). Kind of series: Biological test 11: vapour exposure over treated aluminum plate, mosquitoes. The class given is in vivo. Conditions: 0.64 ml of 0.05 (w/v) % acetone solution, no direct contact, 25 °C for 120 minutes, after 24 hours. Here is the method: (§1) After 0.64 ml of a 0.05 (w/v) % acetone solution of the present compounds was dropped into an aluminum plate (bottom diameter : 7 cm), acetone was air-dried. Ten female common mosquitoes (Culex pipiens pallens) were left in a polyethylene cup (diameter : 9 cm; depth : 4.5 cm) and the cup was sealed with a 16-mesh nylon net to prevent direct contact of the mosquitoes with the compound. The cup was placed upside down on the aluminum plate at 25 °C for 120 minutes. The cup was then removed from the aluminum plate, and water and feed were given to the mosquitoes. After 24 hours, the mortality was examined (two replicate).

Series [3] concerns webbing clothes moth (Tineola bisselliella). In words: Biological test 12: topical application to webbing clothes moth larvae. The class given is in vivo. The note with it: 3 µg / insect, after 7 days. The procedure:
Each of the present compounds diluted with acetone to a predetermined concentration was applied to ten middle instar larvae of webbing clothes moth (Tineola bisselliella) at the central part of the back so as to give the active ingredient in a dose of 3 µg / insect. A wool muslin fabric (2 cm × 2 cm in size) was given to the webbing clothes moths as the food. After 7 days, the mortality and the degree of damage of the wool muslin fabric by the moths were examined (two replicate).

For series [4], the system named is common mosquitoes (Culex pipiens pallens). In words: Biological test 6: mosquito larvae in treated water. The series is classed as in vivo. Conditions: 3.5 ppm active ingredient in water, last-instar larvae, after one day; 1440 min. Here is the method:
0.7 ml of aqueous emulsion, obtained by diluting emulsifiable concentrate prepared for each of the present compounds according to the formulation example 1 was added to 100 ml of ion-exchanged water (concentration of active ingredient : 3.5 ppm). Twenty last-instar larvae of common mosquitoes (Culex pipiens pallens) were left in the water. After one day, the mortality of the common mosquitoes was examined.

Series [5] concerns webbing clothes moth (Tineola bisselliella). In words: Biological test 13: volatile agent hung in cup with webbing clothes moth larvae. The series is classed as in vivo. The note with it: volatile agent (100 µg on filter paper), 25 °C for 1 week; for mortality: 10080 min. The procedure: A wool muslin fabric (2 cm × 2 cm in size) was placed on the bottom of a polyethylene cup (bottom diameter : 10 cm, opening part diameter : 12.5 cm, height : 9.5 cm, volume : 950 cm^3 ). Ten middle instar larvae of webbing clothes moth (Tineola bisselliella) were put in the cup and each of the volatile agents prepared according to the formulation example 14 was hung from the cap in the interior of the cup. After standing at 25 °C for 1 week, the cup was opened, and the mortality and the degree of damage of the wool muslin fabric by the moths were examined (two replicate).

The test system of series [6] is German cockroaches (Blattella germanica). Kind of series: Biological test 5: treated filter paper with sucrose bait, cockroaches low sensitive to pyrethroids. The note with it: 500 ppm aqueous emulsion, male cockroaches low sensitive to pyrethroids, after six days; 8640 min.
Series [7] has as its system houseflies (Musca domestica). In words: Biological test 4: treated filter paper with sucrose bait, houseflies low sensitive to pyrethroids. The note with it: 500 ppm aqueous emulsion, female houseflies low sensitive to pyrethroids, after one day; 1440 min.
Series [8] relates to brown planthopper (Nilaparvata lugens). Kind of series: Biological test 2: rice plant stalk dipped in emulsion. The series is classed as in vivo. The note with it: 500 ppm aqueous emulsion, larvae, after 6 days. Here is the method:
A stalk of a rice plant was dipped for one minute in a 500 ppm aqueous emulsion obtained by diluting each emulsifiable concentrate of the present compounds prepared according to the formulation example 1. The rice plant stalk was air-dried and placed in a polyethylene cup (diameter : 5.5 cm) where filter paper (diameter : 5.5 cm) impregnated with 1 ml of water was put. Approximately 30 larvae of brown planthopper (Nilaparvata lugens) were put in the polyethylene cup. After 6 days, the mortality of the larvae was examined.

The test system of series [9] is common mosquitoes (Culex pipiens pallens). Kind of series: Biological test 7: oil solution sprayed in glass chamber, knock-down. The note with it: 0.7 ml of 0.1 % oil solution sprayed, 0.34 m^3 chamber, after 15 minutes. The class given is in vivo. The procedure: Ten female common mosquitoes (Culex pipiens pallens) were left in a glass chamber (70 cm × 70 cm × 70 cm : 0.34 m^3). 0.7 ml of 0.1 % oil solution prepared for each of the present compounds according to the formulation example 7 was sprayed with a spray gun at 0.8 atmospheric pressure. After 15 minutes, the rate of knocked-down mosquitoes was examined.

For series [10], the system named is webbing clothes moth (Tineola bisselliella). Kind of series: Biological test 14: persistence of treated filter paper in cardboard box, webbing clothes moth larvae. The series is classed as in vivo. Further details: key to degree of damage: -: no damage; +: slight damage; ++: heavy damage; +++: severe damage. The note with it: 36 mg on filter paper. Here is the method:
A filter paper (3.2 cm × 3.2 cm in size) treated with 36 mg of each of the present compounds and two wool muslin fabrics (25 cm × 25 cm in size) were hung down at the upper part of a corrugated cardboard box (29 cm × 29 cm × 29 cm in size). After standing at 25 °C and a humidity of 60 % for 1 week, two tea-strainer balls holding 7 to 10 middle instar larvae of webbing clothes moth (Tineola bisselliella) and one piece of wool muslin cloth (2 cm × 2 cm in size) were hung down at the upper part of the box. The box was closed with a lid. After one week, the box was opened, and the percent moribund and the degree of damage of the wool muslin cloth by the moths were examined. The same tests was repeated 2 weeks, 3 weeks and 5 weeks after the treatment to examine the persistance of the present compound. The degree of damage was represented by "-" in no damage, " + " in slight damage, " ++ " in heavy damage and "+++ " in severe damage.

The test system of series [11] is tobacco cutworm (Spodoptera litura). Kind of series: Biological test 1: artificial bait impregnated with emulsion. Conditions: 500 ppm emulsion, 4-instar larvae, after 6 days.
Series [12] relates to southern corn rootworm (Diabrotica undecimpunctata howardi). In words: Biological test 3: treated filter paper with eggs and sprouting corn. The note with it: 50 ppm aqueous emulsion, after 8 days.
Series [13] concerns houseflies (Musca domestica). Kind of series: Biological test 10: vapour exposure over treated aluminum plate, houseflies. The series is classed as in vivo. The note with it: 0.64 ml of 0.05 (w/v) % acetone solution, no direct contact, 25 °C for 120 minutes, after 24 hours. The procedure: as §1, with “houseflies (Musca domestica)” for “common mosquitoes (Culex pipiens pallens)”, “houseflies” for “mosquitoes”, “houseflies.” for “mosquitoes.”, “percent moribund” for “mortality”

For series [14], the system named is common mosquitoes (Culex pipiens pallens). Kind of series: Biological test 8: mosquito-coil in glass chamber, knock-down. The series is classed as in vivo. The note with it: 1.0 g of 0.3 % mosquito-coil, 0.34 m^3 chamber, after 15 minutes. The procedure:
Mosquito-coil containing the present compound in an amount of 0.3 % was prepared according to the formulation example 10 for the present compounds. Ten female common mosquitoes (Culex pipiens pallens) were left in a glass chamber (70 cm × 70 cm × 70 cm : 0.34 m^3) and 1.0 g of 0.3 % mosquito-coil having both ends lit was placed in the glass chamber. After 15 minutes, the rate of knocked-down mosquitoes was examined.

The next series relates to rats. The note with it: male 7-week old rats, into the stomach in corn oil, after 7 days. Here is the method: After subjecting the rats to a twenty-hour fasting, 0.1 ml of the diluted solution per 10g weight was forcibly applied into the stomach of four male 7-week old rats. The rats were given food and water four hours after the application and thereafter regularly fed and watered, and kept in a cage. After 7 days, the mortality was examined for the rats and LD50 was calculated.

For orientation: mortality means the share of the test organisms that died.

In the case of `C=CCc1ccc(COC(=O)[C@@H]2[C@H](/C=C(\Cl)C(F)(F)F)C2(C)C)o1` (racemic) [present compound (4), 5-allyl-2-furfuryl (1RS,cis)-3-(Z-2-chloro-3,3,3-trifluoroprop-1-enyl)-2,2-dimethylcyclopropanecarboxylate], the percent moribund in series [1], in series [10] (After 1 week), in [10] (After 2 weeks), in series [10] (After 3 weeks), in series [10] (After 5 weeks) and in series [13] was 100% in each case. The mortality in [2] is listed as 100%; in series [3], 100%; in series [4], at least 90%; in series [5] it was 100%; in series [6], 100%; in series [7], 100%. In addition, the mortality is at least 90% in [8] and 100% in series [11]. Moreover, the “degree of damage of the wool muslin fabric” value in series [3] and in [5] was “no damage” throughout. The results for the “rate of knocked-down mosquitoes” value in series [9] and in series [14] were at least 90% and 100%, respectively. Further, the degree of damage entry in [10] (After 1 week), in [10] (After 2 weeks), in [10] (After 3 weeks) and in series [10] (After 5 weeks) was “-” in each case. Also, in series [12], the “mortality of the hatched larvae and eggs” value was determined as 100%.
In the case of `CCc1ccc(COC(=O)[C@@H]2[C@H](/C=C(\Cl)C(F)(F)F)C2(C)C)o1` (racemic) [present compound (2), 5-ethyl-2-furfuryl (1RS,cis)-3-(Z-2-chloro-3,3,3-trifluoroprop-1-enyl)-2,2-dimethylcyclopropanecarboxylate], the percent moribund in series [1], in [10] (After 1 week), in [10] (After 2 weeks), in series [10] (After 3 weeks), in series [10] (After 5 weeks) and in series [13] was 100% each time. The mortality was 100% in series [2]; 100% in [3]; at least 90% in [4]; 100% in series [5]; 100% in [6]; 100% in [7]. Also, the mortality in [8] was at least 90%; in [11], 100%. Also, the “degree of damage of the wool muslin fabric” value in [3] and in series [5] was “no damage” each time. The “rate of knocked-down mosquitoes” value in series [9] is listed as at least 90%; in series [14], 100%. For the same compound, the degree of damage result in series [10] (After 1 week), in [10] (After 2 weeks), in series [10] (After 3 weeks) and in series [10] (After 5 weeks) was “-” each time. Besides, the “mortality of the hatched larvae and eggs” value in [12] is listed as 100%.
As for `C#CCc1ccc(COC(=O)C2C(/C=C(\Cl)C(F)(F)F)C2(C)C)o1` (stereo not drawn) [C, reference compound], the LD50 entry with rats is listed as “less than 100 mg/kg”. Also, the degree of damage result in series [10] (After 1 week), in [10] (After 2 weeks), in [10] (After 3 weeks) and in series [10] (After 5 weeks) was “+++” in each case. Further, the percent moribund in [10] (After 1 week) is recorded as 7%; in [10] (After 2 weeks) it was 63%; in [10] (After 3 weeks), 20%; in [10] (After 5 weeks) it was 37%.
`CCCc1ccc(COC(=O)[C@@H]2[C@H](/C=C(\Cl)C(F)(F)F)C2(C)C)o1` (racemic) [present compound (3), 5-propyl-2-furfuryl (1RS,cis)-3-(Z-2-chloro-3,3,3-trifluoroprop-1-enyl)-2,2-dimethylcyclopropanecarboxylate]: the percent moribund in series [1], in series [10] (After 1 week), in series [10] (After 2 weeks), in [10] (After 3 weeks), in series [10] (After 5 weeks) and in [13] was 100% throughout. Moreover, the mortality in series [2] is listed as 100%; in [3] it was 100%; in series [4], at least 90%; in [5] it was 100%; in [6], 100%; in series [7], 100%. Also, the mortality is on record as at least 90% in series [8] and 100% in series [11]. In addition, the “degree of damage of the wool muslin fabric” value in [3] and in series [5] was “no damage” throughout. Also, the “rate of knocked-down mosquitoes” value in [9] was at least 90%; in series [14] it was 100%. Moreover, the degree of damage result in [10] (After 1 week), in series [10] (After 2 weeks), in series [10] (After 3 weeks) and in series [10] (After 5 weeks) was “-” throughout. Besides, the “mortality of the hatched larvae and eggs” value in [12] was found to be 100%.
